Test results reported in US20220002306A1, “CRYSTAL FORM OF UPADACITINIB AND PREPARATION METHOD AND USE THEREOF” (CRYSTAL PHARMACEUTICAL (SUZHOU) CO., LTD., priority 2018, published 2022).
Converted amounts (≈) assume the structure as drawn. “And” between values parts separate entries of the source, which are not always exact repeats. Equal values may be shown once. “Also recorded” adds a separate entry of the source. Blank lines part the entries; values can stand above or below the compound they belong to.

Assays:
[1] = disclosed in WO2017066775A1, cited from earlier work
[2] = Compressibility (tablet hardness, tensile strength); assay type: physicochemical
Experimental: An ENERPAC manual tablet press was used for compression. 80 mg of Form CSI of the present disclosure and prior art Form C were weighed and added into the dies of a round tooling (ensuring the isotropy of tables), compressed at 10 KN manually, and then stored at room temperature for 24 h until complete elastic recovery. Hardness (H) was tested with an intelligent tablet hardness tester. Diameter (D) and thickness (L) were tested with a caliper. […] Under a certain force, the greater the tensile strength, the better the compressibility.

[3] = Intrinsic dissolution rate in pH 6.8 PBS; assay type: physicochemical; details: for IDR / Cumulative dissolution: 37° C.; for Cumulative dissolution: 100 rpm; for Slope: regression line of data within 8-15 minutes
Experimental: (§1) Solubility measurement for solubility, dissolution, and intrinsic dissolution rate in PBS in the present disclosure:
The whole pellet was transferred to a dissolution apparatus to test the intrinsic dissolution rate. The slope (in μg/min) of the regression line was calculated according to the data within 8-15 minutes. Intrinsic dissolution rate (IDR) was further calculated according to the slope (in μg/min/cm^2).

[4] = FaSSIF (pH 6.5, 37° C.); disclosed in WO2017066775A1; cited from earlier work
[5] = In vitro dissolution of drug product (tablet) in pH 6.8 PBS; assay type: physicochemical; details: for Cumulative dissolution: drug product of example 16, 30 mg, 37° C., paddle 75 rpm
[6] = Crystalline form before and after formulation process (XRPD); assay type: physicochemical
Excerpt: Form CSI of the present disclosure was made into tablet according to the formulation in Table 15 and process in Table 16. Crystalline forms before and after formulation were checked by XRPD, and the XRPD pattern overlay is substantially as depicted in FIG. 17.
Crystalline forms before and after formulation were checked by XRPD, and the comparison of XRPD patterns are substantially as depicted in FIG. 18.

[7] = Kinetic solubility in pH7.4 PBS, FaSSIF and FeSSIF; assay type: physicochemical; details: for solubility at 24 h / solubility at 34 h / solubility at 48 h: thermodynamic from solid
Experimental: Solubility measurement for freebase content in upadacitinib freebase acetic acid solvate of the present disclosure. Solubility measurement for upadacitinib freebase acetic acid solvate of the present disclosure in FaSSIF and FeSSIF:
as §1
The solubility of Form C was disclosed in WO2017066775A1. In order to have a comparison with Form C, solubility of Form CSI was measured. Saturated solutions of Form CSI of the present disclosure were prepared with pH7.4 PBS, pH6.5 FaSSIF and pH5.0 FeSSIF at 25° C. or 37° C. After equilibration for 24 h, 34 h and 48 h, the saturated solutions were obtained by filtration. The concentrations of compound I in the saturated solutions were measured by high performance liquid chromatography (HPLC) and the results are listed in Table 8.

[8] = Storage stability of drug substance (XRPD before and after storage); assay type: physicochemical; details: for Solid Form after storage: sealed
Experimental: Solid samples of Form CSI in the present disclosure were sealed and stored under different conditions of 4° C., 25° C./60% RH, 40° C./75% RH, and 60° C./75% RH. Crystalline form was checked by XRPD before and after storage.

[9] = Mechanical stability (tableting, grinding; XRPD); assay type: physicochemical
Experimental: 20 mg of Form CSI was weighed into the die of 16 mm round tooling (IDR punch), and tableted by ENERPAC manual tablet press with 3 kN, 7 kN, and 14 kN pressure.
A small amount of Form CSI was grounded manually for 5 minutes in a mortar.

[10] = Particle size distribution; assay type: physicochemical; details: wet mode, Isopar G, after 30 seconds of ultrasound
Experimental: The particle size distribution data in the present disclosure were acquired by a Mastersizer 3000 laser particle size analyzer of Malvern. The test is carried out in wet mode by Hydro MV dispersing device, and the dispersion medium is Isopar G. The method parameters of the laser particle size analyzer are as follows:
The mixture was mixed thoroughly and transferred into the Hydro MV dispersing device. The experiment started when the obscuration is in an appropriate range. The particle size distribution was tested after 30 seconds of ultrasound. The particle size distribution (PSD) patterns are substantially as depicted in FIG. 15 (Form CSI) and FIG. 16 (Form C).

[11] = PBS pH 7.4, aqueous buffer, pH 7.4 PBS, 25° C.
[12] = grounded manually for 5 minutes in a mortar

SMILES: CC[C@@H]1CN(C(=O)NCC(F)(F)F)C[C@@H]1c1cnc2cnc3[nH]ccc3n12 [Form A]
- Crystallinity and stability [1]: poor crystallinity and stability
- Dehydration [1]: can be easily dehydrated to form amorphous

- Mean tensile strength ([2]; 80 mg compressed at 10 KN): 0.69 MPa
- IDR [3]: 81.6204 μg/min/cm^2
- Cumulative dissolution ([3]; 8 min): 94.7 µg
- Cumulative dissolution ([3]; 10 min): 207.4 µg
- Cumulative dissolution ([3]; 15 min): 388.1 µg
- Slope [3]: 40.8102 µg/min
- Cumulative dissolution ([5]; 0 min): 0.0%
- Cumulative dissolution ([5]; 5 min): 22.7%
- Cumulative dissolution ([5]; 10 min): 32.6%
- Cumulative dissolution ([5]; 15 min): 39.2%
- Cumulative dissolution ([5]; 20 min): 44.4%
- Cumulative dissolution ([5]; 30 min): 51.5%
- Cumulative dissolution ([5]; 45 min): 59.5%
- Cumulative dissolution ([5]; 60 min): 65.2%
SMILES: CC[C@@H]1CN(C(=O)NCC(F)(F)F)C[C@@H]1c1cnc2cnc3[nH]ccc3n12 [Form C in WO2017066775A1, (3S,4R)-3-ethyl-4-(3H-imidazo[1,2-a]pyrrolo[2,3-e]pyrazine-8-yl)-N-(2,2,2-trifluoroethyl) pyrrolidine-1-carboxamide, reference compound]
- Solubility [4]: 220 µg/mL (≈ 0.578 mM)

- Mean tensile strength ([2]; 80 mg compressed at 10 KN): 1.53 MPa
- Hardness ([2]; 80 mg compressed at 10 KN, tablets No. 1-3): 3.53 kgf and 3.06 kgf and 3.43 kgf
- Tensile strength ([2]; 80 mg compressed at 10 KN, tablets No. 1-3, T=2H/πDL*9.8): 1.57 MPa and 1.43 MPa and 1.58 MPa
- IDR [3]: 665.4630 μg/min/cm^2
- Cumulative dissolution ([3]; 8 min): 746.1 µg
- Cumulative dissolution ([3]; 10 min): 1458.8 µg
- Cumulative dissolution ([3]; 15 min): 3087.0 µg
- Slope [3]: 332.7315 µg/min
- Physical stability before and after formulation process ([6]; tablet of Example 15 (Table 15, Table 16)): good physical stability
- Crystalline form after formulation process ([6]; tablet of Example 16 (Table 17, Table 18)): remains unchanged
- solubility at 24 h [7, 11]: 790 µg/mL (≈ 2.08 mM)
- solubility at 34 h [7, 11]: 710 µg/mL (≈ 1.87 mM)
- solubility at 48 h [7, 11]: 660 µg/mL (≈ 1.74 mM)
- Solubility compared with Form C ([7]; pH7.4 PBS, pH6.5 FaSSIF and pH5.0 FeSSIF): higher than that of Form C
- solubility at 24 h ([7]; FaSSIF (pH 6.5, 37° C.)): 3800 µg/mL (≈ 9.99 mM)
- solubility at 34 h ([7]; FaSSIF (pH 6.5, 37° C.)): 4100 µg/mL (≈ 10.8 mM)
- solubility at 48 h ([7]; FaSSIF (pH 6.5, 37° C.)): 4100 µg/mL (≈ 10.8 mM)
- solubility at 24 h ([7]; FeSSIF (pH 5.0, 37° C.)): 3100 µg/mL (≈ 8.15 mM)
- solubility at 34 h ([7]; FeSSIF (pH 5.0, 37° C.)): 3000 µg/mL (≈ 7.89 mM)
- solubility at 48 h ([7]; FeSSIF (pH 5.0, 37° C.)): 3100 µg/mL (≈ 8.15 mM)
- Cumulative dissolution ([5]; 0 min): 0.0%
- Cumulative dissolution ([5]; 5 min): 28.7%
- Cumulative dissolution ([5]; 10 min): 46.4%
- Cumulative dissolution ([5]; 15 min): 53.6%
- Cumulative dissolution ([5]; 20 min): 57.5%
- Cumulative dissolution ([5]; 30 min): 61.3%
- Cumulative dissolution ([5]; 45 min): 64.9%
- Cumulative dissolution ([5]; 60 min): 67.3%
- Time the crystalline form kept stable ([8]; 4° C.): at least 6 months
- Chemical purity during storage ([8]; 4° C., 40° C./75% RH and 60° C./75% RH): remains substantially unchanged
- Solid Form after storage ([8]; 4° C., 6 months): Form CSI
- Chemical purity during storage ([8]; 25° C./60% RH): remains substantially unchanged
- Solid Form after storage ([8]; 25° C./60% RH, 6 months): Form CSI
- Solid Form after storage ([8]; 40° C./75% RH, 2 weeks): Form CSI
- Solid Form after storage ([8]; 60° C./75% RH, 2 weeks): Form CSI
- Crystalline state after tableting ([9]; 3 kN, 7 kN, and 14 kN pressure): does not change
- Crystallinity after tableting ([9]; 3 kN, 7 kN, and 14 kN pressure): remains substantially unchanged
- Crystallinity after grinding [9, 12]: remains substantially unchanged
- Particle size distribution compared with Form C in WO2017066775A1 [10]: more uniform particle size distribution
SMILES: CC[C@@H]1CN(C(=O)NCC(F)(F)F)C[C@@H]1c1cnc2cnc3[nH]ccc3n12 [Form CSI, (3S,4R)-3-ethyl-4-(3H-imidazo[1,2-a]pyrrolo[2,3-e]pyrazine-8-yl)-N-(2,2,2-trifluoroethyl) pyrrolidine-1-carboxamide]
- Compressibility compared with Form C ([2]; compressed at 10 KN): better compressibility than Form C in WO2017066775A1
- Dissolution rate of drug product compared with Form C [5]: obviously better than that of Form C in WO2017066775A1
- Crystalline state after grinding [9, 12]: does not change; also recorded: remains unchanged after grinding

SMILES: CC[C@@H]1CN(C(=O)NCC(F)(F)F)C[C@@H]1c1cnc2cnc3[nH]ccc3n12 [Form D]
- Form conversion ([1]; high water activity): will convert to Form C
